{
  "source": "patent US20260070924A1",
  "about": "“INDAZOLE MACROCYCLES AND THEIR USE” (BLOSSOMHILL THERAPEUTICS, INC., priority 2022, published 2026)",
  "key": {"MOLM-13 cell line": {"test_system": "MOLM-13 cell line", "assay": "Alternative splicing events by RNAseq in MOLM-13", "format": "cell-based", "conditions": "8 hour-incubation", "experimental": "Alternative splicing events were measured by RNAseq in MOLM-13 cell line. Cells were plated in 24 well plates at 1 million cells per well and then treated with compounds at different concentrations, with DMSO as control. After 8 hour-incubation, cells were harvested and washed once with ice-cold PBS, and lysed in RNA lysis buffer (Invitrogen). Total RNA was extracted using the RNA Purification Kit (Invitrogen). RNAseq was performed by Biomiga (San Diego)."}, "[1]": {"test_system": "BCLAF1 exon10-12/exon 10-11", "assay": "Alternative splicing ratio by qPCR in MOLM-13", "format": "cell-based", "conditions": "DMSO = 1.00", "experimental": "(§1) Alternative splicing ratio of RNA transcripts was measured by qPCR in MV-4-11 and MOLM-13 cell lines. Cells were plated in 24 well plates at 1 million cells per well and then treated with compounds at different concentrations, with DMSO only as control. After 8-hour-incubation, cells were harvested and washed once with ice-cold PBS, and lysed in RNA lysis buffer (Invitrogen). Total RNA was extracted using the RNA Purification Kit (Invitrogen). 2 μg of RNA was used for cDNA synthesis using cDNA synthesis kit (ThermoFisher) and 20 ng of cDNA was used for qPCR using PROFLEX 96-Well PCR System (ThermoFisher).\nPrimers with the following sequences were used for the measurement: • BCLAF1 exon10-12/exon 10-11 (TaqMan, IDT)"}, "FLT3-ITD": {"molecular_target": "FLT3-ITD (Homo sapiens, UniProt P36888)", "assay": "HotSpot radiometric kinase assay (Reaction Biology)", "format": "biochemical", "protocol": "Briefly, specific kinase/substrate pairs along with required cofactors were prepared in reaction buffer; 20 mM Hepes pH 7.5, 10 mM MgCl2, 1 mM EGTA, 0.02% Brij35, 0.02 mg/ml BSA, 0.1 mM Na3VO4, 2 mM DTT, 1% DMSO. Compounds were delivered into the reaction, followed ˜20 minutes later by addition of a mixture of ATP (Sigma, St. Louis MO) and ^33P ATP (Perkin Elmer, Waltham MA) to a final concentration of 10 M. Reactions were carried out at room temperature for 120 min, followed by spotting of the reactions onto P81 ion exchange filter paper (Whatman Inc., Piscataway, NJ). Unbound phosphate was removed by extensive washing of filters in 0.75% phosphoric acid. […] IC50 values and curve fits were obtained using Prism (GraphPad Software)."}, "[2]": {"test_system": "S6K (PRS6KB1) exon6-8/exon 6-7", "assay": "Alternative splicing ratio by qPCR in MOLM-13", "format": "cell-based", "conditions": "DMSO = 1.02", "experimental": "as §1"}, "FLT3 (K663Q)": {"molecular_target": "FLT3 (K663Q) (Homo sapiens (Human), UniProt P36888, K663Q)", "assay": "KINOMEscan binding assay (Eurofins DiscoveRx)", "experimental": "(§2) For most kinases, kinase-tagged T7 phage strains were prepared in an E. coli host derived from the BL21 strain. E. coli were grown to log-phase and infected with T7 phage and incubated with shaking at 32° C. until lysis. The lysates were centrifuged and filtered to remove cell debris. The remaining kinases were produced in HEK-293 cells and subsequently tagged with DNA for qPCR detection. Streptavidin-coated magnetic beads were treated with biotinylated small molecule ligands for 30 minutes at room temperature to generate affinity resins for kinase assays. The liganded beads were blocked with excess biotin and washed with blocking buffer (SeaBlock (Pierce), 1% BSA, 0.05% Tween 20, 1 mM DTT) to remove unbound ligand and to reduce non-specific binding. […] Test compounds were prepared as 111× stocks in 100% DMSO. Kds were determined using an 11-point 3-fold compound dilution series with three DMSO control points. […] The compounds were then diluted directly into the assays such that the final concentration of DMSO was 0.9%. All reactions performed in polypropylene 384-well plate. Each was a final volume of 0.02 ml. […] The kinase concentration in the eluates was measured by qPCR. Binding constants (Kds) were calculated with a standard dose-response curve using a non-linear least square fit with the Levenberg-Marquardt algorithm."}, "FLT3 (D835Y)": {"molecular_target": "FLT3 (D835Y) (Homo sapiens (Human), UniProt P36888, D835Y)", "assay": "KINOMEscan binding assay (Eurofins DiscoveRx)", "experimental": "as §2"}, "FLT3 (N841I)": {"molecular_target": "FLT3 (N841I) (Homo sapiens (Human), UniProt P36888, N841I)", "assay": "KINOMEscan binding assay (Eurofins DiscoveRx)", "experimental": "as §2"}, "FLT3-autoinhibited": {"molecular_target": "FLT3-autoinhibited (Homo sapiens (Human), UniProt P36888)", "assay": "KINOMEscan binding assay (Eurofins DiscoveRx)", "experimental": "as §2"}, "FLT3 (ITD)": {"molecular_target": "FLT3 (ITD)", "assay": "KINOMEscan binding assay (Eurofins DiscoveRx)", "experimental": "as §2"}, "FLT3 (ITD, D835V)": {"molecular_target": "FLT3 (ITD, D835V)", "assay": "KINOMEscan binding assay (Eurofins DiscoveRx)", "experimental": "as §2"}, "FLT3 (D835H)": {"molecular_target": "FLT3 (D835H) (Homo sapiens (Human), UniProt P36888, D835H)", "assay": "KINOMEscan binding assay (Eurofins DiscoveRx)", "experimental": "as §2"}, "FLT3 (ITD, F691L)": {"molecular_target": "FLT3 (ITD, F691L)", "assay": "KINOMEscan binding assay (Eurofins DiscoveRx)", "experimental": "as §2"}, "FLT3": {"molecular_target": "FLT3 (Homo sapiens (Human), UniProt P36888)", "assay": "KINOMEscan binding assay (Eurofins DiscoveRx)", "experimental": "as §2"}, "FLT3 (R834Q)": {"molecular_target": "FLT3 (R834Q) (Homo sapiens (Human), UniProt P36888, R834Q)", "assay": "KINOMEscan binding assay (Eurofins DiscoveRx)", "experimental": "as §2"}, "FLT3 (D835V)": {"molecular_target": "FLT3 (D835V) (Homo sapiens (Human), UniProt P36888, D835V)", "assay": "KINOMEscan binding assay (Eurofins DiscoveRx)", "experimental": "as §2"}, "MV-4-11 cells": {"test_system": "MV-4-11 cells", "assay": "MV-4-11 cell proliferation assay (CellTiter-Glo 2.0)", "format": "cell-based", "conditions": "MV-4-11, 384-well, 11-dose dilution series; read-out: IC50, inhibition of MV-4-11 cell proliferation", "experimental": "MV-4-11 cell line was purchased from ATCC and maintained in RPMI medium supplemented with 10% fetal bovine serum and 100 U/mL of penicillin/streptomycin. One thousand MV-4-11 cells/50 μl per well were seeded in white 384-well plate, followed by treatment with indicated compounds in a 11-dose dilution series. Cell proliferation was measured using CellTiter-Glo 2.0 luciferase-based ATP detection assay (Promega, Madison, WI) following the manufacturer's protocol. Plates were then read on a TECAN Sparks multimode microplate reader. Data was analyzed using GraphPad Prism 9 (GraphPad Software, San Diego, CA) to obtain IC50 values."}},
  "note": "pIC50, pKd: −log10 of the molar value.",
  "data": [
    {"smiles": "CCc1nn(C)c2c1/C=C/c1n[nH]c3ccc(cc13)-c1cnn(C)c1OCCN(C)C2=O", "note": "[Ex. 6, (17E)-16-ethyl-8,12,14-trimethyl-2,11,12,14-tetrahydro-8H-3,5-ethenotripyrazolo[3,4-f:3′,4′-j:4″,3″-n][1,4]oxazacyclopentadecin-13(10H)-one]", "values": [
      {"measurement": "AS Events A3′SS (alternative 3′ splice site)", "setting": "MOLM-13 cell line; MOLM-13, 30 nM", "result": 371},
      {"measurement": "AS Events A5′SS (alternative 5′ splice site)", "setting": "MOLM-13 cell line; MOLM-13, 30 nM", "result": 289},
      {"measurement": "AS Events MXE (mutually exclusive exons)", "setting": "MOLM-13 cell line; MOLM-13, 30 nM", "result": 187},
      {"measurement": "AS Events RI (retained intron)", "setting": "MOLM-13 cell line; MOLM-13, 30 nM", "result": 536},
      {"measurement": "AS Events SE (skipped exon)", "setting": "MOLM-13 cell line; MOLM-13, 30 nM", "result": 2054},
      {"measurement": "AS Events A3′SS (alternative 3′ splice site)", "setting": "MOLM-13 cell line; MOLM-13, 100 nM", "result": 559},
      {"measurement": "AS Events A5′SS (alternative 5′ splice site)", "setting": "MOLM-13 cell line; MOLM-13, 100 nM", "result": 443},
      {"measurement": "AS Events MXE (mutually exclusive exons)", "setting": "MOLM-13 cell line; MOLM-13, 100 nM", "result": 325},
      {"measurement": "AS Events RI (retained intron)", "setting": "MOLM-13 cell line; MOLM-13, 100 nM", "result": 841},
      {"measurement": "AS Events SE (skipped exon)", "setting": "MOLM-13 cell line; MOLM-13, 100 nM", "result": 4568},
      {"measurement": "AS Events A3′SS (alternative 3′ splice site)", "setting": "MOLM-13 cell line; MOLM-13, 300 nM", "result": 722},
      {"measurement": "AS Events A5′SS (alternative 5′ splice site)", "setting": "MOLM-13 cell line; MOLM-13, 300 nM", "result": 590},
      {"measurement": "AS Events MXE (mutually exclusive exons)", "setting": "MOLM-13 cell line; MOLM-13, 300 nM", "result": 355},
      {"measurement": "AS Events RI (retained intron)", "setting": "MOLM-13 cell line; MOLM-13, 300 nM", "result": 1184},
      {"measurement": "AS Events SE (skipped exon)", "setting": "MOLM-13 cell line; MOLM-13, 300 nM", "result": 5093},
      {"measurement": "Alternative Splicing Ratio BCLAF1 Ex. 10-12/Ex. 10-11", "setting": "[1]; MOLM-13, 30 nM", "result": 1.80},
      {"measurement": "Alternative Splicing Ratio BCLAF1 Ex. 10-12/Ex. 10-11", "setting": "[1]; MOLM-13, 100 nM", "result": 5.76},
      {"measurement": "Alternative Splicing Ratio BCLAF1 Ex. 10-12/Ex. 10-11", "setting": "[1]; MOLM-13, 300 nM", "result": 6.89},
      {"measurement": "pIC50", "setting": "FLT3-ITD", "result": 9.46},
      {"measurement": "Alternative Splicing Ratio S6K Ex. 6-8/Ex. 6-7", "setting": "[2]; MOLM-13, 30 nM", "result": 1.60},
      {"measurement": "Alternative Splicing Ratio S6K Ex. 6-8/Ex. 6-7", "setting": "[2]; MOLM-13, 100 nM", "result": 2.71},
      {"measurement": "Alternative Splicing Ratio S6K Ex. 6-8/Ex. 6-7", "setting": "[2]; MOLM-13, 300 nM", "result": 8.08},
      {"measurement": "pKd", "setting": "FLT3 (K663Q)", "result": 7.80},
      {"measurement": "pKd", "setting": "FLT3 (D835Y)", "result": 8.39},
      {"measurement": "pKd", "setting": "FLT3 (N841I)", "result": 8.66},
      {"measurement": "pKd", "setting": "FLT3-autoinhibited", "result": 8.04},
      {"measurement": "pKd", "setting": "FLT3 (ITD)", "result": 8.20},
      {"measurement": "pKd", "setting": "FLT3 (ITD, D835V)", "result": 10.24},
      {"measurement": "pKd", "setting": "FLT3 (D835H)", "result": 7.17},
      {"measurement": "pKd", "setting": "FLT3 (ITD, F691L)", "result": 9.64},
      {"measurement": "pKd", "setting": "FLT3", "result": 9.74},
      {"measurement": "pKd", "setting": "FLT3 (R834Q)", "result": 9.05},
      {"measurement": "pKd", "setting": "FLT3 (D835V)", "result": 10.21},
      {"measurement": "pIC50", "setting": "MV-4-11 cells", "result": 9.52}
    ]}
  ]
}
